pIC50: −log10 of the molar value.
Legend:
HIV-1 RT = HIV-1 RT (Human immunodeficiency virus type 1 group M subtype B, UniProt P04585); experiment: HIV-1 Reverse Transcriptase Assay (RNA-dependent DNA polymerase activity, SPA); assay type: biochemical; conditions: 30° C., 30 min, 10% DMSO
Procedure: RNA-dependent DNA polymerase activity was measured using a biotinylated primer oligonucleotide and tritiated dNTP substrate. Newly synthesized DNA was quantified by capturing the biotinylated primer molecules on streptavidin coated Scintillation Proximity Assay (SPA) beads (Amersham). The sequences of the polymerase assay substrate were: 18 nt DNA primer, 5′-Biotin/GTC CCT GTT CGG GCG CCA-3′; 47 nt RNA template, 5′-GGGUCUCUCUGGUUAGACCACUCUAGCAGUGGCGCCCGAACAGGGAC-3′. The biotinylated DNA primer was obtained from the Integrated DNA Technologies Inc. and the RNA template was synthesized by Dharmacon. The DNA polymerase assay (final volume 50 μl) contained 32 nM biotinylated DNA primer, 64 nM RNA substrate, dGTP, dCTP, dTTP (each at 5 μM), 103 nM [^3H]-dATP (specific activity=[…]), in 45 mM Tris-HCl, pH 8.0, 45 mM NaCl, 2.7 mM Mg(CH3COO)2, 0.045% Triton X-100 w/v, 0.9 mM EDTA. The reactions contained 5 ul of serial compound dilutions in 100% DMSO for IC50 determination and the final concentrations of DMSO were 10%. Reactions were initiated by the addition of 30 μl of the HIV-RT enzyme (final concentrations of 1-3 nM). Protein concentrations were adjusted to provide linear product formation for at least 30 min of incubation. After incubation at 30° C. for 30 min, the reaction was quenched by addition of 50 μl of 200 mM EDTA (pH 8.0) and […] SA-PVT SPA beads (Amersham, RPNQ0009, reconstituted in 20 mM Tris-HCl, pH 8.0, 100 mM EDTA and 1% BSA). The beads were left to settle overnight and the SPA signals were counted in a 96-well top counter-NXT (Packard).

SMILES	pIC50 (HIV-1 RT)	melting point [°C]
N#Cc1cc(Cl)cc(Oc2c(Br)ccc(CN3CCC(=O)NC3=O)c2F)c1 [Compound I-1, 3-[6-Bromo-3-(2,4-dioxo-tetrahydro-pyrimidin-1-ylmethyl)-2-fluoro-phenoxy]-5-chloro-benzonitrile]	7.54	161.5 to 163
N#Cc1cc(Cl)cc(Oc2c(Br)ccc(Cn3ccc(=O)[nH]c3=O)c2F)c1 [Compound I-3, 3-[6-Bromo-3-(2,4-dioxo-3,4-dihydro-2H-pyrimidin-1-ylmethyl)-2-fluoro-phenoxy]-5-chloro-benzonitrile]	8.44	229 to 230.5
N#Cc1cc(Cl)cc(Oc2c(Br)ccc(Cn3cc(Cl)c(=O)[nH]c3=O)c2F)c1 [Compound I-4, 3-[6-Bromo-3-(5-chloro-2,4-dioxo-3,4-dihydro-2H-pyrimidin-1-ylmethyl)-2-fluoro-phenoxy]-5-chloro-benzonitrile]	8.39	260.8 to 261.7
CCc1cn(Cc2ccc(Br)c(Oc3cc(Cl)cc(C#N)c3)c2F)c(=O)[nH]c1=O [Compound I-5, 3-[6-Bromo-3-(5-ethyl-2,4-dioxo-3,4-dihydro-2H-pyrimidin-1-ylmethyl)-2-fluoro-phenoxy]-5-chloro-benzonitrile]	8.80	224.6 to 225.6
N#Cc1cc(Cl)cc(Oc2c(Br)ccc(Cn3cc(F)c(=O)[nH]c3=O)c2F)c1 [Compound I-6, 3-[6-Bromo-2-fluoro-3-(5-fluoro-2,4-dioxo-3,4-dihydro-2H-pyrimidin-1-ylmethyl)-phenoxy]-5-chloro-benzonitrile]	8.66	234 to 236
N#Cc1cc(Cl)cc(Oc2c(Br)ccc(Cn3cc(C(F)(F)F)c(=O)[nH]c3=O)c2F)c1 [Compound I-7, 3-[6-Bromo-3-(2,4-dioxo-5-trifluoromethyl-3,4-dihydro-2H-pyrimidin-1-ylmethyl)-2-fluoro-phenoxy]-5-chloro-benzonitrile]	8.22	110 to 112
Cc1cn(Cc2ccc(Br)c(Oc3cc(C#N)cc(C#N)c3)c2F)c(=O)[nH]c1=O [Compound I-8, 5-[6-Bromo-2-fluoro-3-(5-methyl-2,4-dioxo-3,4-dihydro-2H-pyrimidin-1-ylmethyl)-phenoxy]-isophthalonitrile]	8.37	235.6 to 236
N#Cc1cc(C#N)cc(Oc2c(Br)ccc(Cn3cc(Cl)c(=O)[nH]c3=O)c2F)c1 [Compound I-9, 5-[6-Bromo-3-(5-chloro-2,4-dioxo-3,4-dihydro-2H-pyrimidin-1-ylmethyl)-2-fluoro-phenoxy]-isophthalonitrile]	8.28	255 to 255.6
CCc1cn(Cc2ccc(Br)c(Oc3cc(C#N)cc(C#N)c3)c2F)c(=O)[nH]c1=O [Compound I-10, 5-[6-Bromo-3-(5-ethyl-2,4-dioxo-3,4-dihydro-2H-pyrimidin-1-ylmethyl)-2-fluoro-phenoxy]-isophthalonitrile]	7.87	
N#Cc1cc(C#N)cc(Oc2c(Br)ccc(Cn3ccc(=O)[nH]c3=O)c2F)c1 [Compound I-11, 5-[6-Bromo-3-(2,4-dioxo-3,4-dihydro-2H-pyrimidin-1-ylmethyl)-2-fluoro-phenoxy]-isophthalonitrile]	7.64	132 to 133
N#Cc1cc(Cl)cc(Oc2c(Br)ccc(Cn3ccc(N)nc3=O)c2F)c1 [Compound I-12, 3-[3-(4-Amino-2-oxo-2H-pyrimidin-1-ylmethyl)-6-bromo-2-fluoro-phenoxy]-5-chloro-benzonitrile]	6.83	240 to 245
Cc1cn(Cc2ccc(Br)c(Oc3cc(Cl)cc(C#N)c3)c2F)c(=O)nc1N [Compound I-13, 3-[3-(4-Amino-5-methyl-2-oxo-2H-pyrimidin-1-ylmethyl)-6-bromo-2-fluoro-phenoxy]-5-chloro-benzonitrile]	7.71	262.7 to 263.7
Cc1cn(CCc2ccc(Br)c(Oc3cc(Cl)cc(C#N)c3)c2F)c(=O)[nH]c1=O [Compound I-14, 3-{6-Bromo-2-fluoro-3-[2-(5-methyl-2,4-dioxo-3,4-dihydro-2H-pyrimidin-1-yl)-ethyl]-phenoxy}-5-chloro-benzonitrile]	8.15	198 to 200
N#Cc1cc(Cl)cc(Oc2c(Br)ccc(Cn3cc(C#N)c(=O)[nH]c3=O)c2F)c1 [Compound I-15, 1-[4-Bromo-3-(3-chloro-5-cyano-phenoxy)-2-fluoro-benzyl]-2,4-dioxo-1,2,3,4-tetrahydro-pyrimidine-5-carbonitrile]	7.21	246.9 to 247.8
Cc1cc(=O)[nH]c(=O)n1Cc1ccc(Br)c(Oc2cc(Cl)cc(C#N)c2)c1F [Compound I-16, 3-[6-Bromo-2-fluoro-3-(6-methyl-2,4-dioxo-3,4-dihydro-2H-pyrimidin-1-ylmethyl)-phenoxy]-5-chloro-benzonitrile]	7.58	227 to 228
Cc1cn(Cc2ccc(Cl)c(Oc3cc(Cl)cc(C#N)c3)c2F)c(=O)[nH]c1=O [Compound I-17, 3-Chloro-5-[6-chloro-2-fluoro-3-(5-methyl-2,4-dioxo-3,4-dihydro-2H-pyrimidin-1-ylmethyl)-phenoxy]-benzonitrile]	8.51	226 to 227.5
N#Cc1cc(Cl)cc(Oc2c(Cl)ccc(Cn3cc(Cl)c(=O)[nH]c3=O)c2F)c1 [Compound I-18, 3-Chloro-5-[6-chloro-3-(5-chloro-2,4-dioxo-3,4-dihydro-2H-pyrimidin-1-ylmethyl)-2-fluoro-phenoxy]-benzonitrile]	8.43	267.2 to 268
COc1cn(Cc2ccc(Br)c(Oc3cc(Cl)cc(C#N)c3)c2F)c(=O)[nH]c1=O [Compound I-19, 3-[6-Bromo-2-fluoro-3-(5-methoxy-2,4-dioxo-3,4-dihydro-2H-pyrimidin-1-ylmethyl)-phenoxy]-5-chloro-benzonitrile]	8.54	190 to 191.1
C[C@@H]1C(=O)NC(=O)N1Cc1ccc(Br)c(Oc2cc(Cl)cc(C#N)c2)c1F [Compound I-21, 3-[6-Bromo-2-fluoro-3-((R)-5-methyl-2,4-dioxo-imidazolidin-1-ylmethyl)-phenoxy]-5-chloro-benzonitrile]	7.77	119 to 120
C=CCC1C(=O)NC(=O)N1Cc1ccc(Br)c(Oc2cc(Cl)cc(C#N)c2)c1F (stereo not drawn) [Compound I-22, 3-[3-(5-Allyl-2,4-dioxo-imidazolidin-1-ylmethyl)-6-bromo-2-fluoro-phenoxy]-5-chloro-benzonitrile]	6.00	200 to 201
Cc1cn(Cc2ccc(Br)c(Oc3cc(Cl)cc(C#N)c3)c2F)c(=S)[nH]c1=O [Compound I-23, 3-[6-Bromo-2-fluoro-3-(5-methyl-4-oxo-2-thioxo-3,4-dihydro-2H-pyrimidin-1-ylmethyl)-phenoxy]-5-chloro-benzonitrile]	8.26	225 to 226
N#Cc1cc(Cl)cc(Oc2c(Br)ccc(Cn3cc(CO)c(=O)[nH]c3=O)c2F)c1 [Compound I-24, 3-[6-Bromo-2-fluoro-3-(5-hydroxymethyl-2,4-dioxo-3,4-dihydro-2H-pyrimidin-1-ylmethyl)-phenoxy]-5-chloro-benzonitrile]	7.95	226 to 227
CCc1ccc(Cn2cc(C)c(=O)[nH]c2=O)c(F)c1Oc1cc(Cl)cc(C#N)c1 [Compound I-25, 3-Chloro-5-[6-ethyl-2-fluoro-3-(5-methyl-2,4-dioxo-3,4-dihydro-2H-pyrimidin-1-ylmethyl)-phenoxy]-benzonitrile]	8.74	180.5 to 181.5
CCc1ccc(Cn2cc(Cl)c(=O)[nH]c2=O)c(F)c1Oc1cc(Cl)cc(C#N)c1 [Compound I-26, 3-Chloro-5-[3-(5-chloro-2,4-dioxo-3,4-dihydro-2H-pyrimidin-1-ylmethyl)-6-ethyl-2-fluoro-phenoxy]-benzonitrile]	8.85	
Cc1cn(Cc2ccc(Br)c(Oc3cc(C#N)cc(C(F)F)c3)c2F)c(=O)[nH]c1=O [Compound I-27, 3-[6-Bromo-2-fluoro-3-(5-methyl-2,4-dioxo-3,4-dihydro-2H-pyrimidin-1-ylmethyl)-phenoxy]-5-difluoromethyl-benzonitrile]	8.48	232.3 to 234.8
N#Cc1cc(Cl)cc(Oc2c(Br)ccc(CN3CC(=O)NC3=S)c2F)c1 [Compound I-28, 3-[6-Bromo-2-fluoro-3-(4-oxo-2-thioxo-imidazolidin-1-ylmethyl)-phenoxy]-5-chloro-benzonitrile]	7.07	172 to 173
CN1C(=O)NC(=O)C1Cc1ccc(Br)c(Oc2cc(Cl)cc(C#N)c2)c1F (stereo not drawn) [Compound I-32, 3-[6-Bromo-2-fluoro-3-(3-methyl-2,5-dioxo-imidazolidin-4-ylmethyl)-phenoxy]-5-chloro-benzonitrile]	8.20	

Reference: US8026362B2, “Non-nucleoside reverse transcriptase inhibitors” (Roche Palo Alto LLC, priority 2007, dated 2011)
